Assay results: ChEMBL document CHEMBL3301562, “MMV Box screening against Plasmodium falciparum protein kinases and aminoacyl tRNA synthetases”

Legend:
Type in all cases: functional
[1] = biological target: Calcium-dependent protein kinase 1 (Plasmodium falciparum, UniProt P62344); assay: MMV: CDPK1 Protein kinase inhibition assay using recombinant PfCDPK1, syntide 2 peptide substrate, ATP and KinaseGlo to measure % inhibition at 1 uM MMV box compound.
[2] = biological target: T1, Putative uncharacterized protein pk7 (Plasmodium falciparum, UniProt O96214); assay: Final concentrations were 1 uM ATP, 2 mM DTT, 20 mM MgCl2, 2 mM MnCl2, 0.01% BSA, and 6 ug/ml PK7, in a buffer of 20 mM Tris-HCl (pH 7.5). The enzyme itself was the only substrate present (since autophosphorylation occurs); 100 uM 1NA-PP1 was used as a control inhibitor. Incubation time was 3 hours.
T1 sequence (O96214 whole entry): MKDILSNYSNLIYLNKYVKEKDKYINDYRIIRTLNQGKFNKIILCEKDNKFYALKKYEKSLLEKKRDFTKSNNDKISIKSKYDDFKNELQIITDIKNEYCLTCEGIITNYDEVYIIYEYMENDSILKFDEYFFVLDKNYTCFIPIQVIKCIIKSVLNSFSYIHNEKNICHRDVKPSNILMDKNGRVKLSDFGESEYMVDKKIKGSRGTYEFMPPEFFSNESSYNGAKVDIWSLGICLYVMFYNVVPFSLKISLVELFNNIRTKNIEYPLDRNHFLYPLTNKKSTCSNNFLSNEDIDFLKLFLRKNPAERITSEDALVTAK

[3] = biological target: T2, Calcium-dependent protein kinase 4 (Plasmodium falciparum (isolate 3D7), UniProt Q8IBS5); assay: MMV: CDPK4 Protein kinase inhibition assay using recombinant PfCDPK4, syntide2 peptide substrate, ATP and KinaseGlo to measure % inhibition at 1 uM MMV box compound.
T2 sequence (Q8IBS5 whole entry): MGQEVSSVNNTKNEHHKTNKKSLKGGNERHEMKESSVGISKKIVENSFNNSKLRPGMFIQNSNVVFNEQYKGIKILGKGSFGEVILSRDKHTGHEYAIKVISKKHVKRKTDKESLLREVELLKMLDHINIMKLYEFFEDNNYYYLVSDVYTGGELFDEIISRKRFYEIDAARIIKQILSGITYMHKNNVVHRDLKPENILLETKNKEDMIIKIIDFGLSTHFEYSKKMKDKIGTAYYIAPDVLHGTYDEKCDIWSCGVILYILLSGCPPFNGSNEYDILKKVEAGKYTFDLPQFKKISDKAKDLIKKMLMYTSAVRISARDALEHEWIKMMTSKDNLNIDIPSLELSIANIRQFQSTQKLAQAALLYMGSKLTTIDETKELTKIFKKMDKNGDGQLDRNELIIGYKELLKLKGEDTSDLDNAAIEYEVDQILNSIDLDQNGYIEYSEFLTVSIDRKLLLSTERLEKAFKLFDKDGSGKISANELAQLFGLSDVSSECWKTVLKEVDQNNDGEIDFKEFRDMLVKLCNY

[4] = biological target: T3, Cdk-related protein kinase 6 (Plasmodium falciparum, UniProt O77239); assay: Final concentrations were 1.5 uM ATP, 5 mM MnCl2, and 15 ug/ml PK6 in a buffer of 100 mM Tris-HCl (pH 7.5). 50 ug/mL MBP was provided as the substrate; 10 uM staurosporine was used as a control inhibitor. Incubation time was 3 hours and 40 minutes.The catalytic activity of each kinase was considered proportional to ATP consumed, as determined from measurements of residual [ATP] with the luciferase-based reagent Kinase-Glo (Promega) following incubation. Luminescence (proportional to residual [ATP]) was measured on the plate readers FLx800 (BioTek Instruments, Winooski, VT, USA) and MicroBeta2.
T3 sequence (O77239 whole entry): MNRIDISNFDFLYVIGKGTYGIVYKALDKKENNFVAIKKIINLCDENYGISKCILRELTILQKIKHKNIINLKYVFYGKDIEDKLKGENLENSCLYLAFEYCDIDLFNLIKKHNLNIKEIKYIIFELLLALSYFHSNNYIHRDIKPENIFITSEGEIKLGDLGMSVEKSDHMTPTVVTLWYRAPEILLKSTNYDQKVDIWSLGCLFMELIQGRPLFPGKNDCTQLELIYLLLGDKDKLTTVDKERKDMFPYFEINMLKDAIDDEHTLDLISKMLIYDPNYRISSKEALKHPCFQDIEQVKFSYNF

Lysine--tRNA ligase = Lysine--tRNA ligase (Plasmodium falciparum (isolate 3D7), UniProt Q8IDJ8); assay: MMV: KRS recombinant Plasmodium falciparum Lysyl-tRNA-synthetase, assay with yeast tRNA, ATP, and lysine and 3 uM MMV malaria box compound, assay read out with kinase glo as % inhibition.
[5] = biological target: T4, Mitogen-activated protein kinase (Plasmodium falciparum, UniProt Q25917); assay: Final concentrations were 1 uM ATP, 0.5 mM DTT, 1 mM MgCl2, 0.5 mg/mL BSA, and 10 ug/ml MAP2 in a buffer of 50 mM HEPES (pH 7.0). 0.5 mg/mL histone III-S served as the substrate (13); 100 uM AMP-PNP, an ATP analog, was used as a control inhibitor. Incubation time was 4 hours.
T4 sequence (Q25917 whole entry): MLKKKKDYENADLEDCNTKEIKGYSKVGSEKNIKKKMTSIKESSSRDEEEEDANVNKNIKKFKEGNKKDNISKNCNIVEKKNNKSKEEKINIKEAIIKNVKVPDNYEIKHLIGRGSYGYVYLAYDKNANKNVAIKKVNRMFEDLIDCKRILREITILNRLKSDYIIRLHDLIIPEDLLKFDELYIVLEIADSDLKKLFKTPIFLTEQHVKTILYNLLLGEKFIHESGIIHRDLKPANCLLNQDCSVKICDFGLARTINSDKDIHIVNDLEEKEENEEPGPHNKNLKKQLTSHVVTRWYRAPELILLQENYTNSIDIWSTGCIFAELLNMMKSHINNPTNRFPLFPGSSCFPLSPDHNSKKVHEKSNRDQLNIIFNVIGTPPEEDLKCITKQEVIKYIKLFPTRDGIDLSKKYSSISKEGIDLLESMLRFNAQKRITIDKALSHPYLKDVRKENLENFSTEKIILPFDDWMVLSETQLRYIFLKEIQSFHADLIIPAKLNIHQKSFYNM

Proline--tRNA ligase = biological target: T5, Proline--tRNA ligase (Plasmodium falciparum (isolate 3D7), UniProt Q8I5R7); assay: MMV: ProRS recombinant Plasmodium falciparum Prolyl-tRNA-synthetase, assay with yeast tRNA, ATP, and proline and 3 uM MMV malaria box compound, assay read out with kinase glo as % inhibition.
T5 sequence (Q8I5R7 whole entry): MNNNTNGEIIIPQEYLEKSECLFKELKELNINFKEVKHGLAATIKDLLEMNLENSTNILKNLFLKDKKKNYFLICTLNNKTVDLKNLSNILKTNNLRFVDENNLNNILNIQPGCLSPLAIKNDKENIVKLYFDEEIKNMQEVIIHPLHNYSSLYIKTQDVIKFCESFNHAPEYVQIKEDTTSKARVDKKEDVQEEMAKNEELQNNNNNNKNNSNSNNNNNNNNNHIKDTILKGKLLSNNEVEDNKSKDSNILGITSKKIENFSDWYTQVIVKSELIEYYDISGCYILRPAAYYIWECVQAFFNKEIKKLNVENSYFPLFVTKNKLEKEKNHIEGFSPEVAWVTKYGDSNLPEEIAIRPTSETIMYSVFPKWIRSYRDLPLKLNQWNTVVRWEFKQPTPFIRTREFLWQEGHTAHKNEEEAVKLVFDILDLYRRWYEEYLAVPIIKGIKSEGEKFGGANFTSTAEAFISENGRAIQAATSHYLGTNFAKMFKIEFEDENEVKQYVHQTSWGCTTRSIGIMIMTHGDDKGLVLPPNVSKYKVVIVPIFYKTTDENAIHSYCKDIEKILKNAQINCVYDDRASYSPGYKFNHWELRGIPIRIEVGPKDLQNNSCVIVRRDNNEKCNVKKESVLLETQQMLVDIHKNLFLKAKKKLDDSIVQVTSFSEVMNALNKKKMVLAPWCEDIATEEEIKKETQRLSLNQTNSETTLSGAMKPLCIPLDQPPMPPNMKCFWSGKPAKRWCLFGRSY

Sequence of Calcium-dependent protein kinase 1 (P62344 whole entry): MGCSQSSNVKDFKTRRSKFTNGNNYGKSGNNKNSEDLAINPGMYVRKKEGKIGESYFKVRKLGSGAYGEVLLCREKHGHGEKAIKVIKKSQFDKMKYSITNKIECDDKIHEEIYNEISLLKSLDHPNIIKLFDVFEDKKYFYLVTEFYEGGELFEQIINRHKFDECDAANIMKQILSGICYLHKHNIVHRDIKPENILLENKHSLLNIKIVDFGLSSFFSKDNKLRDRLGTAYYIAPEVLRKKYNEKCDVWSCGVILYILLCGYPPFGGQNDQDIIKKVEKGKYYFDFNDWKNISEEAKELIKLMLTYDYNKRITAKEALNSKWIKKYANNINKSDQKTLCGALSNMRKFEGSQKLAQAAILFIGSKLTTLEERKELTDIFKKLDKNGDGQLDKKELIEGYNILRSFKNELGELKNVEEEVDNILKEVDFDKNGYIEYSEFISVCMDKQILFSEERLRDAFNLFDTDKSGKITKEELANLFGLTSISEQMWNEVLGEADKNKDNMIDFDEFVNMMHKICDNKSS
Sequence of Lysine--tRNA ligase (Q8IDJ8 whole entry): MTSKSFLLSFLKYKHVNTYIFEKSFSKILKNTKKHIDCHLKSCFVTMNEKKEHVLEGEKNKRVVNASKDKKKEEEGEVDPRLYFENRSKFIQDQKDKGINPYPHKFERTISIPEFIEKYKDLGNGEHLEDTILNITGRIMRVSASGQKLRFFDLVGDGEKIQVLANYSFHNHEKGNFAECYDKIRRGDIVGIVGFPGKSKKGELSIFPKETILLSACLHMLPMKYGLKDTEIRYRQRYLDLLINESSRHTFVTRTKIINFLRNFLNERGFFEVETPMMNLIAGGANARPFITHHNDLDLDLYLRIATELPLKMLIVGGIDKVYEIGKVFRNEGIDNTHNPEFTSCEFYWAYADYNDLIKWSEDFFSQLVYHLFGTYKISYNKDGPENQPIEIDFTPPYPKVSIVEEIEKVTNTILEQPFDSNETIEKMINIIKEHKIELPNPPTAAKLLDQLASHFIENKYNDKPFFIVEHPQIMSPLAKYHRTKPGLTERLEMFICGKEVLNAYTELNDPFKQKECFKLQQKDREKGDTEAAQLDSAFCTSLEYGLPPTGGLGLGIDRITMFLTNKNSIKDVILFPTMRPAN

SMILES	IC50 [1] [nM]	IC50 [2] [nM]	IC50 [3] [nM]	IC50 [4] [nM]	IC50 (Lysine--tRNA ligase) [nM]	IC50 [5] [nM]	IC50 (Proline--tRNA ligase) [nM]
COc1cccc(Nc2nc(NCCO)c3ccccc3n2)c1	> 1000	> 1000	> 1000	> 1000	> 2500	> 1000	> 2500
COc1ccc(N2CCN(C(CNC(=O)C3CCCCC3)c3ccc4c(c3)OCO4)CC2)cc1 (centres undefined)	> 1000	> 1000	> 1000	> 1000	> 2500	> 1000	> 2500
Cn1c(=O)c2cc(C(=O)NCCCN3CCCCCC3)sc2c2ccccc21	> 1000	> 1000	> 1000	> 1000	> 2500	> 1000	> 2500
COc1ccc(CCN2CCC(CN(C)Cc3cnn(-c4ccccc4)c3)CC2)cc1	> 1000	> 1000	> 1000	> 1000	> 2500	> 1000	> 2500
O=C(NC(c1ccccc1)c1ccc2cccnc2c1O)c1ccccc1 (centres undefined)	> 1000	> 1000	> 1000	> 1000	> 2500	> 1000	> 2500
CCOc1cc(Cl)c(C(C)NC(=O)c2cccc(OC)c2)cc1OCC (centres undefined)	> 1000	> 1000	> 1000	> 1000	> 2500	> 1000	> 2500
Cc1ccc(Cl)cc1N1CCN(CCCNC(=O)C2CCN(c3nc4ccccc4[nH]3)CC2)CC1	> 1000	> 1000	> 1000	> 1000	> 2500	> 1000	> 2500
O=C(Nc1ccc(CN2CCOCC2)cc1)c1ccc(-c2ccc(Br)cc2)o1	> 1000	> 1000	> 1000	> 1000	> 2500	> 1000	> 2500
CCCC(c1nnnn1C1CCCCC1)N1CCN(C(=O)c2ccco2)CC1 (centres undefined)	> 1000	> 1000	> 1000	> 1000	> 2500	> 1000	> 2500
COc1cccc(-c2nn(C)c3sc(C(=O)NCCN4CCN(c5ccccc5F)CC4)cc23)c1	> 1000	> 1000	> 1000	> 1000	> 2500	> 1000	> 2500
Cc1ccc(CN2CCC(C(=O)Nc3ccc(-c4cc5ccccc5[nH]4)cc3)CC2)o1	> 1000	> 1000	> 1000	> 1000	> 2500	> 1000	> 2500
Cc1cc(C)c2nc(N3CCC(C(=O)NCCCN4CCC(N5CCCCC5)CC4)CC3)sc2c1	> 1000	> 1000	> 1000	> 1000	> 2500	> 1000	> 2500
COc1ccccc1CNC(=O)C1c2ccccc2C(=O)N(CC(C)C)C1c1cccs1 (centres undefined)	> 1000	> 1000	> 1000	> 1000	> 2500	> 1000	> 2500
O=C(Nc1ccc(F)c(Cl)c1)Nc1ccc(Cl)c(Cl)c1	> 1000	> 1000	> 1000	> 1000	> 2500	> 1000	> 2500
CCCc1c(C)nc2ccccc2c1O	> 1000	> 1000	> 1000	> 1000	> 2500	> 1000	> 2500
CCOc1c(Cl)cc(CNC(C)C(O)c2ccccc2)cc1OC (centres undefined)	> 1000	> 1000	> 1000	> 1000	> 2500	> 1000	> 2500
CN1c2ccccc2N(C)C1c1ccc2c(c1)OCO2	> 1000	> 1000	> 1000	> 1000	> 2500	> 1000	> 2500
